Laboratory results: the supplement of paper PMC10307832

What was measured:
Test in all cases: relative viability (nuclei count vs DMSO), 5 days (fraction); higher = more cells survive
[1] = compound: CCc1c2c(nc3ccc(OC(=O)N4CCC(N5CCCCC5)CC4)cc13)-c1cc3c(c(=O)n1C2)COC(=O)[C@]3(O)CC [Irinotecan] + CS(=O)(=O)CCNCc1ccc(-c2ccc3ncnc(Nc4ccc(OCc5cccc(F)c5)c(Cl)c4)c3c2)o1 [Lapatinib] (partner 2 µM)
How it was run: (§1)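 After 5 days of treatment, lung cancer cells in 1536-well plates were fixed and stained in a single step (final 0.05% Triton X-100, 1% formaldehyde, 1 ug/ml Hoechst) and their nuclei counted on 4× images. Treatment had been applied by pin tool the day after seeding as one drug alone or as a fixed anchor-drug dose with five library-drug doses (not always all listed) in √10 steps. Relative viability is the nuclei count of treated wells divided by that of vehicle wells, and values are medians of duplicate plates.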

[2] = compound: CCc1c2c(nc3ccc(OC(=O)N4CCC(N5CCCCC5)CC4)cc13)-c1cc3c(c(=O)n1C2)COC(=O)[C@]3(O)CC [Irinotecan] + C[C@@H](Oc1cc(-c2cnn(C3CCNCC3)c2)cnc1N)c1c(Cl)ccc(F)c1Cl [Crizotinib] (partner 1 µM)
How it was run: as §1

[3] = compound: Cn1cc(-c2cnc3ccc4ccc(CS(=O)(=O)NCc5ccccn5)cc4c(=O)c3c2)cn1 [MK-8033] + Cc1nc(Nc2ncc(C(=O)Nc3c(C)cccc3Cl)s2)cc(N2CCN(CCO)CC2)n1 [Dasatinib] (partner 0.075 µM)
How it was run: as §1

Cell Line | relative viability ([1]; first compound 0.6325 µM) | relative viability ([1]; first compound 2 µM) | relative viability ([1]; first compound 6.325 µM) | relative viability ([1]; first compound 20 µM) | relative viability ([2]; first compound 0.6325 µM) | relative viability ([2]; first compound 2 µM) | relative viability ([2]; first compound 6.325 µM) | relative viability ([2]; first compound 20 µM) | relative viability ([3]; first compound 0.02 µM) | relative viability ([3]; first compound 0.06325 µM) | relative viability ([3]; first compound 0.2 µM) | relative viability ([3]; first compound 0.6325 µM) | relative viability ([3]; first compound 2 µM)
SK-MES-1 | 0.544 | 0.414 | 0.25 | 0.32 | 0.93 | 0.767 | 0.272 | 0.298 | 0.347 | 0.337 | 0.427 | 0.365 | 0.411
HOP-62 | 0.471 | 0.258 | 0.143 | 0.217 | 0.211 | 0.108 | 0.136 | 0.159 | 0.536 | 0.535 | 0.581 | 0.66 | 0.599
NCI-H520 | 0.604 | 0.664 | 0.28 | 0.2 | 0.639 | 0.524 | 0.279 | 0.225 | 0.193 | 0.187 | 0.211 | 0.221 | 0.168
EBC-1 | 0.219 | 0.172 | 0.21 | 0.15 | 0.191 | 0.165 | 0.203 | 0.151 |  |  |  |  | 
BEN | 0.542 | 0.418 | 0.244 | 0.338 | 0.928 | 0.52 | 0.252 | 0.391 | 0.343 | 0.289 | 0.318 | 0.326 | 0.307
NCI-H322M | 0.585 | 0.654 | 0.328 | 0.363 | 0.475 | 0.405 | 0.42 | 0.316 | 0.283 | 0.243 | 0.238 | 0.263 | 0.261
LU99A | 0.367 | 0.309 | 0.203 | 0.197 | 0.281 | 0.286 | 0.251 | 0.229 | 0.61 | 0.442 | 0.626 | 0.542 | 0.445
NCI-H2405 |  | 1.05 | 0.333 | 0.101 | 0.788 | 0.779 | 0.355 | 0.274 | 0.185 | 0.202 | 0.228 | 0.213 | 0.21
NCI-H1395 |  | 0.732 | 0.531 | 0.361 |  |  |  |  | 0.391 | 0.368 | 0.406 | 0.378 | 0.403
HCC-44 | 0.96 | 0.73 | 0.273 | 0.382 | 0.578 | 0.491 | 0.27 | 0.273 |  |  |  |  | 
NCI-H441 |  |  |  |  | 0.577 | 0.314 | 0.257 | 0.286 | 0.511 | 0.603 | 0.494 | 0.835 | 0.405
Calu-6 | 0.599 | 0.514 | 0.226 | 0.125 | 0.548 | 0.525 | 0.226 | 0.114 |  |  |  |  | 
CAL-12T | 0.71 | 0.543 | 0.475 | 0.442 | 0.728 | 0.766 | 0.374 | 0.326 | 0.478 | 0.3 | 0.405 | 0.367 | 0.456
HCC-78 | 0.551 | 0.543 | 0.206 | 0.218 | 0.353 | 0.312 | 0.222 | 0.181 | 0.55 |  | 0.335 | 0.355 | 0.491
NCI-H2170 | 0.271 | 0.264 | 0.231 | 0.2 | 1.1 | 0.588 | 0.309 | 0.186 | 0.681 | 0.553 | 0.604 | 0.581 | 0.481
NCI-H1623 |  |  |  |  |  |  |  |  | 0.608 | 0.504 | 0.642 | 0.516 | 0.57
NCI-H23 | 0.653 | 0.466 | 0.277 | 0.271 | 0.514 | 0.463 | 0.295 | 0.348 | 0.844 | 0.827 | 0.64 | 0.928 | 0.587
COR-L 105 | 0.358 | 0.431 | 0.452 | 0.272 | 0.922 | 0.866 | 0.524 | 0.376 | 0.368 | 0.303 | 0.328 | 0.335 | 0.402
LOU-NH91 | 0.685 | 0.8 | 0.414 | 0.402 | 0.718 | 0.658 | 0.368 | 0.36 | 0.534 | 0.388 | 0.537 | 0.57 | 0.544
NCI-H650 | 0.757 | 0.693 | 0.275 | 0.31 | 0.543 | 0.436 | 0.258 | 0.235 | 0.491 | 0.446 | 0.471 | 0.386 | 0.489
NCI-H2023 | 0.484 | 0.408 | 0.129 | 0.045 | 0.676 | 0.532 | 0.205 | 0.0482 | 0.603 | 0.437 | 0.421 | 0.342 | 0.288
NCI-H1563 | 0.674 | 1.05 | 0.954 | 0.441 | 0.865 | 0.882 | 0.865 | 0.344 | 0.468 | 0.45 | 0.473 | 0.362 | 0.46
LCLC-103H |  |  |  |  | 0.834 | 0.379 | 0.397 | 0.621 | 0.516 | 0.518 | 0.406 | 0.434 | 0.537
HCC-15 | 0.463 | 0.336 | 0.17 | 0.155 | 0.479 | 0.319 | 0.158 | 0.18 | 0.639 | 0.541 | 0.542 | 0.6 | 0.616
NCI-H838 | 1.03 | 0.874 | 0.399 | 0.161 | 0.769 | 0.679 | 0.365 | 0.276 | 0.258 | 0.281 | 0.259 | 0.279 | 0.247
NCI-H2009 | 0.308 | 0.445 | 0.294 | 0.12 | 0.912 | 0.857 | 0.233 | 0.224 | 0.299 | 0.329 | 0.308 | 0.232 | 0.279
NCI-H2228 | 0.798 | 0.772 | 0.461 | 0.353 | 0.597 | 0.518 | 0.39 | 0.433 | 0.586 | 0.517 | 0.471 | 0.446 | 0.482
